Measured values published in patent publication US20230312652A1, “NOVEL PEPTIDES AND USES THEREOF” (Aarhus Universitet, priority 2020, published 2023).
Where a SMILES comes first, the peptide text is derived from it.

Experiments:
[1] = test system: AMPK (T172) and CREB (S133); assay: P1 activation of AMPK and CREB with or without CaMKK2-inhibitor STO-609 in cortical neurons; type: cell-based, mouse
Protocol: Mouse cortical neurons were isolated from p0 wild-type mice and seeded in a density of 250,000 per well in a 12-well tray. After 7 days in vitro the neurons were either pre-treated with STO-609 (5 uM) for 1 hour or with DMSO (control). After 1 hour, the neurons were stimulated with P1 or a scrambled peptide (Scr), with or without STO-609, in neurobasal A media and incubated at 37° C. and 5% CO2 for 20 minutes. Hereafter, the neurons were lysed in lysis buffer containing DTT and cOmplete cocktail protease inhibitor. Phosphorylation of AMPK (T172) and CREB (S133) was validated by western blotting and normalized to beta-actin.

[2] = test system: TDP-43(ΔNLS)-YFP; assay: Clearance of cytoplasmic TDP-43 in HEK293 cells, western blotting; type: cell-based; settings: dose-range of P1, 24 hours
Protocol: 100,000 HEK293T cells were seeded in a 24-well plate per well. At 60% confluency the cells were transfected with a form of TDP-43-YFP with a mutated nuclear localization signal (TDP-43(ΔNLS)-YFP) to restrict TDP-43 to the cytosol, which is the pathogenic localization in frontotemporal dementia^67. After 24 hours, the cells were treated with a dose-range of peptide P1 and further incubated for another 24 hours. The cells were subsequently lysed in lysis buffer containing DTT and cOmplete cocktail protease inhibitor. The levels of TDP-43 were validated by western blotting using an anti-GFP antibody and the levels were normalized to beta-actin.

[3] = test system: SH-SY5Y cells; assay: Lysosomal acidification in SH-SY5Y cells, LysoSensor Yellow/Blue DND-160; type: cell-based, human; settings: 1 uM, 4 hours
Protocol: SH-SY5Y were seeded in poly-L coated black 96 well plate with clear bottom at a density of ˜3×10^4. The following day, the cells were stimulated with 1 uM P1 (SEQ ID NO: 1) for 4 hours and subsequently incubated with LysoSensor™ Yellow/Blue DND-160 (10 uM) for 20 min. Cells were rinsed with PBS and excitation 340 & 380 and emission 535 was read in a plate-reader. A pH calibration curve buffer was likewise measured. Calculation of the fluorescence intensity ratio of excitation (340/380) results in an average whole-cell intraorganellar pH reflective of all LysoSensor™ Yellow/Blue DND-160-labeled organelles combined. Using the generated linear trendline from the standard curve for pH and 340/380 intensity ratio, calculate the intraorganellar pH of samples.

[4] = test system: CREB; assay: CREB activation (phosphorylation on serine 133) in wild-type cortical neurons, western blotting; type: cell-based, mouse; settings: 20 minutes, 7 days in vitro
Protocol: (§1) To assess the ability of peptides P1, P2 and P6, respectively, to activate transcription factor CREB, cortical neurons were isolated from p0 wild-type mice and seeded in a density of 500.000 per well. After 7 days in vitro the neurons were stimulated with the different peptide variants at 1 uM in neurobasal A media and incubated at 37° C. and 5% C02 for 20 minutes. Hereafter, the neurons were lysed in lysis buffer containing DTT and cOmplete cocktail protease inhibitor and subsequently sonicated to disrupt the nuclear membrane. The phosphorylation of CREB on serine 133 was validated by western blotting normalized to beta-actin. As control, cells were stimulated with a scrambled peptide (Scr). Student's t-test was used for statistical analysis.
as §1, with “The” for “To assess the”, “peptide P1” for “peptides P1, P2”, “a linear peptide analog of P1 with acetylated N- and amidated C-terminals (referred to as LP1)” for “P6, respectively,”, “CREB was assessed. Cortical” for “CREB, cortical”, “20 nM” for “1 uM”, “CO2” for “C02”

[5] = test system: GRN; assay: GRN levels in hippocampus of wild-type mice after 7 days daily SC treatment; type: in vivo, mouse; settings: 13 mg/kg SC daily for 7 days, sacrificed on day 8
Protocol: Wild-type mice were injected with a daily dose of 13 mg/kg of P1 (SEQ ID NO: 1) subcutaneously in 4.38 mM L-His, 140 mM NaCl, 0.2% Tween-20 and 1500 IU hyaluronidase (pH 6.15) for 7 days. The mice were sacrificed on day 8. The hippocampus was isolated and lysed using a TissueLyser in RIPA lysis buffer containing cOmplete and phosSTOP. Levels of GRN (ab HPA008763 from Sigma) was validated by western blotting normalized to beta-actin. Student's t-test was used for statistical analysis.

[6] = test system: BDNF, PGC1a and TFEB in GM04719 fibroblasts; assay: BDNF, PGC1a and TFEB levels in HD patient-derived fibroblasts, western blotting; type: cell-based, human; settings: 1 uM
Protocol: To validate the therapeutic potential of P1 in Huntington's Disease, we likewise assessed whether P1 could increase the three distinct pathways in fibroblasts derived from a HD patient. The fibroblasts were bought from Coriell Biobank. The patient-derived fibroblasts, named GM04719, was sampled from a person with clinical onset […]. The patient has 44-CAG repeats in their HTT-gene.
To assess target engagement by P1, 30,000-50,000 fibroblasts were seeded per well in a 96-well plate. The following day, the cells were treated with 1 uM of P1 and incubated at 37° C. and 5% CO2 at timepoints between 2-24 hours. Hereafter, the cells were lysed in RIPA lysis buffer containing cOmplete cocktail protease inhibitor. BDNF, PGC1a and TFEB levels were analysed by western blotting normalized to beta-actin.

## CSCC[C@@H]1NC(=O)[C@H](C(C)C)NC(=O)[C@H](CC(=O)O)NC(=O)[C@H](CCC(=O)O)NC(=O)[C@H](CCC(=O)O)NC(=O)[C@H](Cc2c[nH]cn2)NC(=O)[C@H](CCC(=O)O)NC(=O)[C@H](C(C)C)NC(=O)[C@@H]2CCCN2C(=O)[C@H](CCC(=O)O)NC(=O)[C@H]([C@@H](C)O)NC1=O [Peptide P1, [MTEPVEHEEDV]] (cyclo(MTEPVEHEEDV))
[1]; 1 uM P1, without STO-609
  phosphorylation of AMPK (T172): significantly increased phosphorylation
  phosphorylation of CREB (S133): significantly increased phosphorylation
[1]; pre-treated with 5 uM STO-609 for 1 hour
  P1-induced activation of AMPK: loss of P1-induced activation of AMPK
[1]; pre-treated with 5 uM STO-609 for 1 hour, compared to P1-treated cells only
  CREB activation by P1: lowered but not totally abolished
[2]
  cytoplasmic TDP-43 levels: decreased the pathogenic cytoplasmic form of TDP-43
[3]
  340/380 intensity ratio: reduction
  drop in lysosomal pH: ~0.2 pH
[4]; 20 nM
  activation of CREB (phosphorylation on serine 133) compared to scrambled peptide: activated CREB
[4]; 1 uM
  activation of CREB (phosphorylation on serine 133) compared to scrambled peptide: markedly activated CREB
[5]
  GRN levels in hippocampus: higher levels of GRN
[6]; 6 hours of treatment
  PGC1a level: upregulated
  TFEB level: upregulated
[6]; after 24 hours
  BDNF level: significantly upregulated
